The source of these data is patent US20120108667A1, “HYDROXY CERAMIDES AND ANALOGS THEREOF AND THEIR USE FOR PREVENTING OR TREATING CANCER” (priority 2010, published 2012).

Molecules are shown by their SMILES. Several values for one entry are separate records, joined by “and”; a condition that tells them apart may be missing. Equal values may be shown once. Read-outs that look alike come from different tables or passages of the source. Bounds are passed on as bounds.

The subject of one series is HL60 leukemia cells. As to conditions: previously reported; cited from earlier work.
Series [1] relates to MCF7 cells. The series is described as follows: Cell proliferation of MCF7 cells (cell counts, Trypan blue, 24 h). As to conditions: for IC50: read-out: IC50, MCF7 cell growth inhibition. Type of series: cell-based, human. The protocol:
(§1) MCF7 cells (breast adenocarcinoma, pleural effusion) were purchased from American type Culture Collection (ATCC, Rockville, Md., USA) and grown in RPMI 1640 media (Life Technologies, Inc) supplemented with 10% fetal calf serum (FCS, Summit Biotechnology, CO, USA) and maintained under standard incubator conditions (humidified atmosphere 95% air, 5% CO2, 37° C.). A parallel set of cells was used to determine cell proliferation and to prepare lipid extracts for MS analysis.
MCF7 cells were seeded at a density of ˜50% (corresponding to 1×10^6 cells) in 10 ml of 10% FCS and, after an overnight incubation, were treated with the compounds at (0-50 μM) in ethanol (<0.1%) and the changes in cell numbers after 24 h were determined and expressed as a percentage of the untreated controls. Briefly, media were removed, cells were washed twice with PBS, detached using 1% Trypsin and centrifuged at 800 rpm. Cell pellets were resuspended in PBS and Trypan blue (Sigma Chemicals, St. Louis, Mo., USA) was added (1:1 dilution). Under a light microscope, the percentage of unstained and stained cells was assessed.

Series [2] relates to MCF7 cells. The series is described as follows: LC-MS/MS cellular levels of exogenously added compounds in MCF7 cells. As to conditions: for cellular level of the analog, time course / cellular uptake, early level / cellular level of the analog, concentration dependent: MCF7 cells; for cellular level of the analog, time course / cellular uptake, early level: 10 μM; for cellular level of the analog, time course: up to 24 h; for cellular uptake, early level: up to ~1 h; for cellular accumulation: MCF7 cells (Example 6); for cellular level of the analog, concentration dependent: 24 h. Type of series: cell-based, human. The method, then: as §1
(§2) Advanced analyses were performed on a Thermo Finnigan TSQ 7000, triple-stage quadrupole mass spectrometer operating in a Multiple Reaction Monitoring (MRM) positive ionization mode as described (J. Bielawski, et al., Methods 39 (2006), p. 82; J. Bielawski, et al., Methods Mol. Biol. 579 (2009), p. 443). Quantitative analysis of the cellular level of 2′-OH—C6-Cers/dhCers and C6-Cer/dhCer was based on the calibration curves generated by spiking an artificial matrix with known amounts of target standards and an equal amount of the internal standard (IS). The target analyte to IS peak area ratios from the samples were similarly normalized to their respective IS and compared to the calibration curves using a linear regression model. Final results were expressed as the level of the particular SPLs/phospholipids (Pi) determined from the Bligh & Dyer lipid extract and expressed as SPLs/Pi (pmol/nmol).

Series [3] deals with endogenous SPLs in MCF7 cells. The series can be described thus: LC-MS/MS analysis of endogenous SPLs in treated MCF7 cells. Type of series: cell-based, human. As to conditions: for elevation of cellular dhCer: 40 μM treatment. The method, then: as §1, §2
A further series deals with T1, dhCer desaturase (Homo sapiens, UniProt O15121).
T1 construct: endogenous in cells; host or cells: MCF7
T1 sequence (O15121 1-323): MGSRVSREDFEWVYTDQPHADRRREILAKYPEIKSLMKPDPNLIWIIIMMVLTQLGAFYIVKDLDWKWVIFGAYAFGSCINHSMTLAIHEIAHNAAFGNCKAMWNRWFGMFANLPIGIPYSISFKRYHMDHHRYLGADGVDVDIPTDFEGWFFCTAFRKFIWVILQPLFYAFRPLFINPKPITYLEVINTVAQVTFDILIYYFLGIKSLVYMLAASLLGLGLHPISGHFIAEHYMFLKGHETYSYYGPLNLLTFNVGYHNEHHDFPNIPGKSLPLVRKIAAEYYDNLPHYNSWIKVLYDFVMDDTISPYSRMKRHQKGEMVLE
The series is described as follows: Conversion of C6-dhCer analogs to their unsaturated analogs in MCF7 cells. Type of series: cell-based. Particulars: 24 h treatment. The method, then: as §2

[4] abbreviates: 10 μM, time-dependent experiment, data not shown.

Take `CCCCCCCCCCCCC/C=C/[C@@H](O)[C@H](CO)NC(=O)[C@H](C)O` [(2′S)-2′-OH—C3-Cer]: the “potency relative to the other isomer” value in the series on HL60 leukemia cells was “much more potent then its (2′R)-isomer”.
Regarding `CCCCCCCCCCCCC/C=C/[C@@H](O)[C@H](CO)NC(=O)CCCCC` [C6-Cer], the IC50 with MCF7 cells [1] (listed as C6-ceramide) is 12 µM. Further, the 50% inhibitory concentration (IC50) with MCF7 cells [1] was around 12 µM. In addition, in the series on MCF7 cells [2], the “cellular level of the analog, time course” value is reported as “progressively increased up to 5 h followed by decrease at 24 h” and the “cellular uptake, early level” value is reported as “highest levels”. The “cellular Cers level, time dependent” value in series [3] (10 μM, at 24 h) worked out at 350%. In series [3] (10 μM, up to 5 h), the “cellular Cers level, time dependent” value was 500%. In series [3] (20 μM treatment, 24 h), the “increase of C14-Cer” value was around 40 fold, the “increase of C16-Cer” value is around 20 fold, the “increase of C18-Cer” value is listed as around 80 fold and the “increase of C24-Cer” value is around 0.2 fold. Moreover, in series [3] (20 μM treatment, 24 h), the “increase of C24:1-Cer” value is reported as “fivefold”. In addition, in series [3] (20 μM, 24 h), the “cellular S1P level” value is recorded as 800%, the “endogenous Cer (total) level” value is listed as “up to 900%” and the “endogenous Sph level” value is recorded as at most 600%. In series [3] (24 h), the “concentration from which all Cer species are elevated” value was at least 5 µM. Moreover, in series [3] (MCF7 cells), the “influence on levels of cellular Cers/dhCers” value is reported as “significantly increased the levels of their cellular long chain homologs” and the “metabolism/conversion to cellular long chain 2′-OH homologs (2′-OHCer analogs)” value is recorded as “not converted to the cellular 2′-OHCer analogs”.
With `CCCCCCCCCCCCCCC[C@@H](O)[C@H](CO)NC(=O)CCCCC` [C6-dhCer], in the series on MCF7 cells [1], the “concentration at which an inhibitory effect on cell growth is caused” value is “higher than 10 μM”; the IC50 was ~38 µM and 38 µM. Besides, the “cellular level of the analog, time course” value in the series with MCF7 cells [2] is “followed the curve of C6-Cer, however at a lower rate”. Also, in series [3] (10 μM), the “effect on Cer species, time dependent” value is reported as “elevated all Cer species” and the “effect on cellular Sph, time dependent” value is listed as “slightly increased”. Further, in series [3] (10 μM, at 24 h), the “cellular Cers level, time dependent” value worked out at 280% and the “cellular dhCers level, time dependent” value is listed as “decreased to almost control level”. For the same compound, in series [3] (10 μM, data not shown), the “effect on dhCer species, time dependent” value is “elevated all dhCer species”. Also, in series [3] (10 μM, up to 5 h), the “cellular Cers level, time dependent” value turned out to be 310% and the “cellular dhCers level, time dependent” value came to 750%. For the same compound, in series [3] (24 h), the “elevation of cellular dhCer” value was around 7 fold. In series [3] (40 μM, 24 h), the “endogenous Cer level” value is reported as 550% and the “increase of cellular dhSph” value was around 5 fold. Besides, the “elevation of dhC16-Cer (C16-dhCer)” value in series [3] (24 h, results not shown) is at most 13 fold. Moreover, in series [3] (MCF7 cells), the C16-Cer/C16-dhCer fold ratio is 50/13 and the “influence on levels of cellular Cers/dhCers” value is recorded as “significantly increased the levels of their cellular long chain homologs”. In addition, the “cellular Sph level (decrease to)” value in series [3] (at a low concentration, 24 h) is listed as around 70%. Further, the “effect on cellular dhCers” value in series [3] (up to 10 μM, 24 h) is recorded as “did not induce elevation of cellular dhCers”. Moreover, the “conversion to the corresponding unsaturated analog” value on dhCer desaturase came to 42%.
Consider `CCCCCCCCCCCCC/C=C/[C@@H](O)[C@H](CO)NC(=O)[C@H](O)CCCC` [LCL366, (2S,3R,2′R,4E)-2′-Hydroxy-C6-ceramide], for which, in the series with MCF7 cells [2], the cellular accumulation entry is on record as “low cellular accumulation”; the “cellular level of the analog, time course” value is listed as “progressively decreased to the lowest level among all tested analogs at 24 h”; the “cellular uptake, early level” value is given as “highest levels”; the “cellular level of the analog, concentration dependent” value is recorded as “lowest level”.
Regarding `CCCCCCCCCCCCC/C=C/[C@@H](O)[C@H](CO)NC(=O)[C@@H](O)CCCC` [LCL367, (2S,3R,2′S,4E)-2′-Hydroxy-C6-ceramide], in the series with MCF7 cells [2], the cellular accumulation entry is given as “higher cellular accumulation”; the “cellular level of the analog, time course” value is “elevated up to 2.5 h followed by a small decrease at 5 h and plateau to 24 h”; the “cellular level of the analog, concentration dependent” value is given as “highest level”.
In the case of `CCCCCCCCCCCCCCC[C@@H](O)[C@H](CO)NC(=O)[C@@H](O)CCCC` [LCL466, (2S,3R,2′S)-2′-Hydroxy-C6-dihydroceramide], in the series with MCF7 cells [1] (listed as (2′S)-2′-OH—C6-dhCer), the IC50 is ~12 µM and 12 µM. Further, the “cellular level of the analog, time course” value in the series with MCF7 cells [2] was “elevated up to 5 h reaching the level of C6-dhCer and remaining constant up to 24 h”. In addition, the “effect on Cer species, time dependent” value in series [3] (10 μM) was “elevated all Cer species”. Also, in series [3] (10 μM, at 24 h), the “cellular Cers level, time dependent” value is “the same as for 5 h treatment” and the “cellular dhCers level, time dependent” value is “the same as for 5 h treatment”. In series [3] (10 μM, data not shown), the “effect on dhCer species, time dependent” value was “elevated all dhCer species”. Also, in series [3] (10 μM, up to 5 h), the “cellular Cers level, time dependent” value was 200% and the “cellular dhCers level, time dependent” value was determined as 200%. Besides, in series [3] (24 h), the “elevation of cellular dhCer” value was around 19 fold and the “cellular Sph level, concentration dependent” value was “elevation of cellular Sph”. For the same compound, the “increase of cellular dhSph” value in series [3] (40 μM, 24 h) was around 16 fold. In addition, in series [3] (24 h, results not shown), the “elevation of dhC16-Cer (C16-dhCer)” value is given as “up to 25 fold”. Further, in series [3] (MCF7 cells), the C16-Cer/C16-dhCer fold ratio is recorded as 50/25; the “effectiveness as inducer of cellular dhCers, Cers, dhSph and Sph” value is “three time more effective than C6-dhCer”. Besides, the “conversion to the corresponding unsaturated analog” value at dhCer desaturase is reported as “up to 12%”.
As for `CCCCCCCCCCCCCCC[C@@H](O)[C@H](CO)NC(=O)[C@H](O)CCCC` [LCL467, (2S,3R,2′R)-2′-Hydroxy-C6-dihydroceramide], the “effect of 20 μM treatment on cells” value with MCF7 cells [1] (20 μM) is “total cell death”. In addition, the IC50 in the series with MCF7 cells [1] (listed as (2′R)-2′-OH—C6-dhCer) was ~8 µM and 8 µM. For the same compound, in the series with MCF7 cells [2], the “cellular level of the analog, time course” value is given as “showed the lowest level, remaining in a plateau between 2.5-24 h”. Moreover, the “endogenous Cer (total) level” value in series [3] (10 μM, 24 h, concentration-dependent experiment) is around 150%. For the same compound, in series [3] (10 μM, at 24 h), the “cellular Cers level, time dependent” value is recorded as around 140% and the “cellular dhCers level, time dependent” value is “remained unchanged”. Also, in series [3] (setting [4]), the “decrease of long chain dhCers” value was 10-25% and the “increase of very long chain dhCers” value is recorded as 20-30%. In addition, in series [3] (10 μM, up to 5 h), the “cellular Cers level, time dependent” value was “did not affect” and the “cellular dhCers level, time dependent” value is on record as “did not affect”. For the same compound, in series [3] (1-5 μM, 24 h), the “decrease of C16-Cer” value is given as “up to 60%”. Moreover, in series [3] (24 h), the “cellular Sph level, concentration dependent” value is around 80% and the “effect on cellular dhSph” value is given as “did not affect”. In addition, in series [3] (24 h, results not shown), the “C14-dhCer level (decrease to)” value was 25 % control and the “elevation of dhC16-Cer (C16-dhCer)” value was “did not elevate”. Also, in series [3] (MCF7 cells), the “effectiveness as inducer of cellular dhCers, Cers, dhSph and Sph” value is given as “not effective”. In series [3] (up to 5 μM, 24 h), the “effect on cellular Cer” value is listed as “did not affect”. The “conversion to the corresponding unsaturated analog” value at dhCer desaturase was “up to 5%”.

For orientation: IC50 means the concentration at which inhibition is half-maximal.
